Consider 1 molecule from ChEMBL document CHEMBL3217650, “Discovery of novel selective Sigma-1 ligands as cognitive enhancers” (Medchemcomm, 2011).

The nature of data set [1]: Intrinsic clearance in human liver microsomes measured per mg of protein. It is filed as ADME. To be noted: read-out: CLH.
For the next data set, the species on record is Rattus norvegicus. Description: Displacement of [3H]1,3-di-O-tolylguanidine from sigma-2 receptor in rat cerebral cortex at 10 uM relative to control. Format: tissue-based. (In general: In a radioligand displacement assay an active substance lowers the binding of a labelled ligand.)
The nature of data set [2]: Solubility of the compound at pH 7.4. Format: physicochemical. To be noted: buffer.
Data set [3] in a line: Intrinsic clearance in mouse liver microsomes measured per mg of protein. As to conditions: read-out: CLH. It is filed as ADME. Background: Microsomes from liver hold many membrane-bound enzymes, among them those of drug oxidation.
Data set [4] can be described thus: Ratio of drug level in brain to plasma in C57BL6/J mouse at 1 mg/kg, ip measured at 40 mins. More on the design: dose 1 mg/kg, route intraperitoneal. As to conditions: brain and plasma, read-out: BPR. Format: ADME, organism-based.
Data set [5] has as its target Sigma non-opioid intracellular receptor 1 (Homo sapiens, UniProt Q99720). Description: Displacement of [3H]-pentazocine from human recombinant sigma-1 receptor expressed in CHO cells after 180 mins by beta counting analysis. Format: cell-based.
A short description of data set [6]: Dissociation constant, pKa of the compound. Format: physicochemical.
Data set [7] can be described thus: Intrinsic clearance in rat liver microsomes measured per mg of protein. It is filed as ADME. As to conditions: read-out: CLH.
The next data set relates to Mus musculus. Description: Antiamnesic activity in C57BL6/J mouse assessed as reduction of scopolamine-induced memory deficit at 1 to 23 mg/kg, ip administered 40 mins prior to acquisition trial by two-trial object recognition test. It is filed as functional, organism-based.
The nature of data set [8]: Apparent permeability across apical to basolateral side in human Caco2 cells at 20 uM measured up to 3 hrs. Format: ADME, cell-based. To be noted: Caco-2.
The next data set is filed under the species Homo sapiens. Description: Binding affinity to Ca2+ channel (unknown origin) at 10 uM by displacement assay relative to control.
In data set [9] the target is Histamine H3 receptor (Homo sapiens) (UniProt Q9Y5N1). In words: Binding affinity to histamine H3 receptor (unknown origin) at 10 uM by displacement assay relative to control.
A short description of data set [10]: Octanol-water distribution coefficient, log D of the compound at pH 7.4. It is filed as physicochemical. As to conditions: read-out: logD.

Molecules are shown by their SMILES. Values after ≈ are worked out from the molar mass of the structure shown. Active and inactive are the calls of the source. The rule behind the calls is not given here.

Chain of Sigma non-opioid intracellular receptor 1 (Q99720 whole entry): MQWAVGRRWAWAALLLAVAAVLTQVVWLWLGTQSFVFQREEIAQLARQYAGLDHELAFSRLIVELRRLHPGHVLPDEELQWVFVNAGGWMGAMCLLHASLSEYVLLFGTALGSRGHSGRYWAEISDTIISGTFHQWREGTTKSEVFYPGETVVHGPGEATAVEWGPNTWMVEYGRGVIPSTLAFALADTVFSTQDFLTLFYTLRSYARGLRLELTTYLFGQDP
Chain of Histamine H3 receptor (Homo sapiens) (Q9Y5N1 whole entry): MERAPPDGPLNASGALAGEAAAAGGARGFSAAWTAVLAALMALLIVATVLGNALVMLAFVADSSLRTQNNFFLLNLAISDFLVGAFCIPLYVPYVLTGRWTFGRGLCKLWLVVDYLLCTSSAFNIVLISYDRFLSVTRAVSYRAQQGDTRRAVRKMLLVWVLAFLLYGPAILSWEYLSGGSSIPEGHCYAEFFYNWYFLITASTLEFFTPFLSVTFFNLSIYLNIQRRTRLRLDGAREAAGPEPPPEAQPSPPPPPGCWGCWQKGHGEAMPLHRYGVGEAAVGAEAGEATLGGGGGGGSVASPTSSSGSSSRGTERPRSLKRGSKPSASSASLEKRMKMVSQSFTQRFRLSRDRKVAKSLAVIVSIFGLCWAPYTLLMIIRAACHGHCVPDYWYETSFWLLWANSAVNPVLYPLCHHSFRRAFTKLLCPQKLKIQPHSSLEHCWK

For orientation: inhibition means the share of the control response that was lost under treatment. A word on the solubility: it is how much of the substance goes into solution per volume. High values mean a readily soluble substance, low ones a poorly soluble substance. A word on the Ki: it is a measure of affinity in units of concentration, obtained from inhibition or displacement. The term pKa denotes the pH at which an ionisable group is half protonated. A higher pKa goes with a group that holds its proton tightly. What is called Papp A→B is how fast a substance crosses the layer from the apical side. As a reminder, the logD is lipophilicity at a set pH, counting ionised and neutral species. As to `O=C([C@H]1C[C@@H]1c1ccccc1)N1CCC(N2CCCCC2)CC1` (racemic), the figures for the microsomal CLint in [1], in data set [3] and in data set [7] were 56 µL/min/mg, 50 µL/min/mg and 32 µL/min/mg, respectively. In addition, the inhibition (in the data set listed under Rattus norvegicus; in the data set listed under Homo sapiens; in data set [9]) was 50% each time. Moreover, the concentration in solution in data set [2] (solubility) was 1100 µg/mL (≈ 3.52 mM). The Kp at 40 min in data set [4] came out at 13.5. For the same molecule, in [5], the Ki is 79.4 nM. This molecule also yielded a pKa in data set [6] of 9.3. Further, the outcome in the data set on Mus musculus was Active. For the same molecule, the Papp A→B at 3 h, 20 µM in data set [8] stood at 16.6 ×10⁻⁶ cm/s. Also, in data set [10], the logD worked out at 1.1.
